This is an account of results in patent US20210355223A1, “Combinations for Treating Cancer” (Pfizer Inc., priority 2018, published 2021).

For this assay, the target named is IL-2Rαβ (Homo sapiens, UniProt P01589+P14784). Conditions: relative to IL-2 as standard. An excerpt: The term “CD-122-biased cytokine agonist”, as used herein, refers to an agonist that has a greater affinity for binding to IL-2Rβ than to IL-2Rαβ.
Sequence of IL-2Rαβ (P01589 22-240 limits assumed): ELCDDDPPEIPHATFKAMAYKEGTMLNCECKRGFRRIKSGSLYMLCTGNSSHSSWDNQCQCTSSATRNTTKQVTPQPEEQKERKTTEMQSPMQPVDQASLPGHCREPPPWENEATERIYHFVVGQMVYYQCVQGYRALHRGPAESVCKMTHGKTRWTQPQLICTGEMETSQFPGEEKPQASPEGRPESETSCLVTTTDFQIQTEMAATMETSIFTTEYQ
Sequence of IL-2Rαβ (P14784 27-240 limits assumed): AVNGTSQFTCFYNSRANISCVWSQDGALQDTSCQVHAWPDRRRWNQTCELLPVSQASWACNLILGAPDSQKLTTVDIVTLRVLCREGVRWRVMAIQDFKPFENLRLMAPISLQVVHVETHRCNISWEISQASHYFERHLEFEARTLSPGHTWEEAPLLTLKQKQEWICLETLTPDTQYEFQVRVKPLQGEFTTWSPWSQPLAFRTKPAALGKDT

As to “(2,7-(bis-methoxyPEG10kD-carboxyamide)(9H-fluorene-9-yl)methyl N-carbamate)6avginterleukin-2 [bempegaldesleukin]”, the “decrease in affinity to IL-2Rαβ relative to IL-2” value is roughly 60 fold.
